Assay results reported in US10875861B1, “Therapeutic compounds” (Rutgers, The State University of New Jersey, priority 2017, dated 2020).

Columns and labels:
BMI-1 protein = test: Inhibition of BMI-1 protein levels in U87 cells (Western blotting); assay type: cell-based; conditions: U87 cells, 72 hours, different concentrations
Description: U87 cells were treated with DMSO or different concentrations of compound B1 for 72 hours. Cells were lysed in Cell Lysis Buffer (Cell Signaling, #9803) supplemented with Protease Inhibitor Cocktail (Sigma, #P8340), sonicated briefly while on ice and spun down for 30 minutes at 4° C., after which the supernatant was collected. For each sample, 2 uL of lysate was mixed well into 198 uL de-ionized water. Next, 10 uL of this diluted sample was added to a well in a 96 well plate in quadruplets and mixed with Protein Assay Dye Reagent Concentrate (Bio-Rad, #500-0006) (which was diluted 1:5 with water). BSA standards of 25 ng, 50 ng, 100 ng, 200 ng and 250 ng were also used to the plate and mixed with the reagent. The plate was read in a plate reader at 600 nm and samples were calibrated to the standards to determine the concentration of protein. Using the NuPAGE system (Invitrogen), 25 ug of protein was mixed with NuPAGE LDS 4× Sample Buffer (#NP0007), NuPAGE 10× Reducing Agent (#NP0004) and water, mixed well and heated at 96° C. for 15 minutes to denature the protein. […] Protein signals were detected using ECL Western Blotting Substrate (Pierce, #32106) and filmed.
U87 cells were treated with DMSO or different concentrations of the inhibitors for 72 hours. […] The plate was read in a plate reader at 600 nm and samples were calibrated to the standards to determine the concentration of protein. […]

[1] = test system: BMI-1 and ubiquitinated histone H2A in primary glioblastoma cells; test: Modulation / dynamics of BMI-1 and downstream targets in GBM cells (Western blotting); assay type: cell-based, human; conditions: GBM cells, B compounds, 72 hours
Description: Different GBM cells were treated with DMSO or different concentrations of the B compounds for 72 hours. Cells were lysed in Cell Lysis Buffer (Cell Signaling, #9803) supplemented with Protease Inhibitor Cocktail (Sigma, #P8340), spun down for 30 minutes at 4° C., after which the supernatant was collected at every time point indicated. Western blotting analysis was performed on all samples as described above. BMI-1 loss started at 6-12 h, coinciding with an upper shift and hyper-phosphorylation of BMI-1 at 12-24 h and complete depletion at 72 h.
To study the compound dynamic activity against GBM spheres, GBMs were tested with exemplary compounds. Different GBM cells were treated with DMSO or different concentrations of the inhibitors for 72 hours. Cells were lysed in Cell Lysis Buffer (Cell Signaling, #9803) supplemented with Protease Inhibitor Cocktail (Sigma, #P8340), spun down for 30 minutes at 4° C., after which the supernatant was collected at every time point indicated. Western blotting analysis was performed on all samples as described above. […] BMI-1 loss started at 6-12 h, coinciding with an upper shift and hyper-phosphorylation of BMI-1 at 12-24 h and complete depletion at 72 h. […] This is expected since BMI-1 is known to suppress p21. BMI-1 inhibition could be reversed using phosphatase treatment, moreover, when proteasomal inhibitor is added to treated cells after 24 h, BMI-1 is locked in the phosphorylated state, therefore showing that the phosphorylation event precedes BMI-1 degradation. The phosphorylation was independent of p38 kinase activation, as when we added […], the p38 inhibitor to the cultured cells upon treatment with the BMI-1 inhibitor, the combined treatment could not reverse the effects of RU-A15 on BMI-1 inhibition.

## COc1ccc(Nc2nc(-c3nc4ncccn4c3C)cs2)cc1 [Example B1, N-(4-methoxyphenyl)-4-(3-methylimidazo[1,2-a]pyrimidin-2-yl)thiazol-2-amine]
BMI-1 protein
  BMI-1 protein levels in U87 cells (Test C): inhibition of BMI-1 protein levels
[1]
  modulation of BMI-1 (Test B): modulation of BMI-1
  modulation of ubiquitinated histone H2A (Test B): modulation of downstream target ubiquitinated histone H2A
